Laboratory results as given in ChEMBL document CHEMBL1141167, “Antitumor activity of new substituted 3-(5-imidazo[2,1-b]thiazolylmethylene)-2-indolinones and study of their effect on the cell cycle” (2005).
Several values for one entry are separate records, joined by “and”; a condition that tells them apart may be missing. Equal values may be shown once.

Assays:
CNS cell [1] = test: Growth inhibitory concentration dissolved in DMSO against human CNS cell line at 10E-4 M concentration; assay type: functional
Breast carcinoma cell [2] = test: Cytotoxic effect dissolved in DMSO against Breast cell line at 10E-4 M concentration; assay type: functional, Homo sapiens
CNS cell [3] = test: Cytotoxic effect dissolved in DMSO against CNS cell line at 10E-4 M concentration; assay type: functional, Homo sapiens
HT-29 [4] = test: Percentage of Cells after administration of compound dissolved in DMSO (10e-8 M) towards colon adenocarcinoma cell line HT-29 in G2/M Phase after 24 Hours of Treatment [control = 10]; assay type: functional, Homo sapiens
NSCLC [5] = test: Growth inhibitory concentration dissolved in DMSO against human NSCLC cell line at 10E-4 M concentration; assay type: functional; design: unit not given here
Prostate cell [6] = test: Cytotoxic effect dissolved in DMSO against Prostate cell line at 10E-4 M concentration; assay type: functional, Homo sapiens
Breast carcinoma cell [7] = test: Total growth inhibition of human Breast cell line at 10E-4 M concentration; assay type: functional
Renal cell [8] = test: Growth inhibitory concentration dissolved in DMSO against human Renal cell line at 10E-4 M concentration; assay type: functional; design: unit not given here
Melanoma cell [9] = test: Total growth inhibition of human Melanoma cell line at 10E-4 M concentration; assay type: functional
HT-29 [10] = test: Percentage of Cells after administration of compound dissolved in DMSO (10e-7M) towards colon adenocarcinoma cell line HT-29 in G2/M Phase after 24 Hours of Treatment [control = 10]; assay type: functional, Homo sapiens
HT-29 [11] = test: Percentage of Cells after administration of compound dissolved in DMSO (10e-6 M) towards colon adenocarcinoma cell line HT-29 in G2/M Phase after 24 Hours of Treatment [control = 10]; assay type: functional, Homo sapiens
Ovarian carcinoma cell [12] = test: Growth inhibitory concentration dissolved in DMSO against human Ovarian cell line at 10E-4 M concentration; assay type: functional
HT-29 [13] = test: Percentage of Cells after administration of compound dissolved in DMSO (10e-5 M) towards colon adenocarcinoma cell line HT-29 in G2/M Phase after 24 Hours of Treatment [control = 10]; assay type: functional, Homo sapiens
HT-29 [14] = test: Percentage of Cells after administration of compound dissolved in DMSO (10e-4 M) towards colon adenocarcinoma cell line HT-29 in G2/M Phase after 24 Hours of Treatment [control = 10]; assay type: functional, Homo sapiens
[15] = test system: Panel NCI-60 (60 carcinoma cell lines); test: Cytotoxic effect dissolved in DMSO against MG-MID cell line at 10E-4 M concentration; assay type: functional, Homo sapiens
Breast carcinoma cell [16] = test: Growth inhibitory concentration dissolved in DMSO against human Breast cell line at 10E-4 M concentration; assay type: functional
Ovarian carcinoma cell [17] = test: Cytotoxic effect dissolved in DMSO against Ovarian cell line at 10E-4 M concentration; assay type: functional, Homo sapiens
NSCLC [18] = test: Cytotoxic effect dissolved in DMSO against NSCLC cell line at 10E-4 M concentration; assay type: functional, Homo sapiens
Prostate cell [19] = test: Growth inhibitory concentration dissolved in DMSO against human Prostate cell line at 10E-4 M concentration; assay type: functional
Renal cell [20] = test: Cytotoxic effect dissolved in DMSO against Renal cell line at 10E-4 M concentration; assay type: functional, Homo sapiens
[21] = test system: Panel NCI-60 (60 carcinoma cell lines); test: Total growth inhibition of human MG-MID cell line at 10E-4 M concentration; assay type: functional
Colon cell [22] = test: Total growth inhibition of human Colon cell line at 10E-4 M concentration; assay type: functional; design: unit not given here
Colon cell [23] = test: Cytotoxic effect dissolved in DMSO against Colon cell line at 10E-4 M concentration; assay type: functional, Homo sapiens
Colon cell [24] = test: Growth inhibitory concentration dissolved in DMSO against human Colon cell line at 10E-4 M concentration; assay type: functional
NSCLC [25] = test: Total growth inhibition of human NSCLC cell line at 10E-4 M concentration; assay type: functional
[26] = test system: Panel NCI-60 (60 carcinoma cell lines); test: Growth inhibitory concentration dissolved in DMSO against human MG-MID cell line at 10E-4 M concentration; assay type: functional
Prostate cell [27] = test: Total growth inhibition of human Prostate cell line at 10E-4 M concentration; assay type: functional
Ovarian carcinoma cell [28] = test: Total growth inhibition of human Ovarian cell line at 10E-4 M concentration; assay type: functional
Melanoma cell [29] = test: Growth inhibitory concentration dissolved in DMSO against human Melanoma cell line at 10E-4 M concentration; assay type: functional
Melanoma cell [30] = test: Cytotoxic effect dissolved in DMSO against Melanoma cell line at 10E-4 M concentration; assay type: functional, Homo sapiens
Leukemia cell [31] = test: Growth inhibitory concentration dissolved in DMSO against human leukemia cell line at 10E-3 M concentration; assay type: functional
Breast carcinoma cell [32] = test: Total growth inhibition of human Breast cell line at 10E-3 M concentration; assay type: functional
Renal cell [33] = test: Cytotoxic effect dissolved in DMSO against Renal cell line at 10E-3 M concentration; assay type: functional, Homo sapiens
NSCLC [34] = test: Total growth inhibition of human NSCLC cell line at 10E-3 M concentration; assay type: functional
Prostate cell [35] = test: Growth inhibitory concentration dissolved in DMSO against human Prostate cell line at 10E-3 M concentration; assay type: functional
Melanoma cell [36] = test: Total growth inhibition of human Melanoma cell line at 10E-3 M concentration; assay type: functional
NSCLC [37] = test: Growth inhibitory concentration dissolved in DMSO against human NSCLC cell line at 10E-3 M concentration; assay type: functional
Breast carcinoma cell [38] = test: Growth inhibitory concentration dissolved in DMSO against human Breast cell line at 10E-3 M concentration; assay type: functional
[39] = test system: Panel NCI-60 (60 carcinoma cell lines); test: Cytotoxic effect dissolved in DMSO against MG-MID cell line at 10E-3 M concentration; assay type: functional, Homo sapiens
Ovarian carcinoma cell [40] = test: Growth inhibitory concentration dissolved in DMSO against human Ovarian cell line at 10E-3 M concentration; assay type: functional
CNS cell [41] = test: Growth inhibitory concentration dissolved in DMSO against human CNS cell line at 10E-3 M concentration; assay type: functional
Ovarian carcinoma cell [42] = test: Cytotoxic effect dissolved in DMSO against Ovarian cell line at 10E-3 M concentration; assay type: functional, Homo sapiens
CNS cell [43] = test: Total growth inhibition of human CNS cell line at 10E-3 M concentration; assay type: functional
[44] = test system: Panel NCI-60 (60 carcinoma cell lines); test: Growth inhibitory concentration dissolved in DMSO against human MG-MID cell line at 10E-3 M concentration; assay type: functional
NSCLC [45] = test: Cytotoxic effect dissolved in DMSO against NSCLC cell line at 10E-3 M concentration; assay type: functional, Homo sapiens
Ovarian carcinoma cell [46] = test: Total growth inhibition of human Ovarian cell line at 10E-3 M concentration; assay type: functional
Melanoma cell [47] = test: Cytotoxic effect dissolved in DMSO against Melanoma cell line at 10E-3 M concentration; assay type: functional, Homo sapiens
Colon cell [48] = test: Growth inhibitory concentration dissolved in DMSO against human Colon cell line at 10E-3 M concentration; assay type: functional
Leukemia cell [49] = test: Total growth inhibition of human Leukemia cell line at 10E-3 M concentration; assay type: functional
CNS cell [50] = test: Cytotoxic effect dissolved in DMSO against CNS cell line at 10E-3 M concentration; assay type: functional, Homo sapiens
Renal cell [51] = test: Growth inhibitory concentration dissolved in DMSO against human Renal cell line at 10E-3 M concentration; assay type: functional
Renal cell [52] = test: Total growth inhibition of human Renal cell line at 10E-3 M concentration; assay type: functional
Colon cell [53] = test: Cytotoxic effect dissolved in DMSO against Colon cell line at 10E-3 M concentration; assay type: functional, Homo sapiens
Colon cell [54] = test: Total growth inhibition of human Colon cell line at 10E-3 M concentration; assay type: functional
[55] = test system: Panel NCI-60 (60 carcinoma cell lines); test: Total growth inhibition of human MG-MID cell line at 10E-3 M concentration; assay type: functional
Breast carcinoma cell [56] = test: Cytotoxic effect dissolved in DMSO against Breast cell line at 10E-3 M concentration; assay type: functional, Homo sapiens
Prostate cell [57] = test: Total growth inhibition of human Prostate cell line at 10E-3 M concentration; assay type: functional
Leukemia cell [58] = test: Cytotoxic effect dissolved in DMSO against Leukemia cell line at 10E-3 M concentration; assay type: functional, Homo sapiens
Prostate cell [59] = test: Cytotoxic effect dissolved in DMSO against Prostate cell line at 10E-3 M concentration; assay type: functional, Homo sapiens
Melanoma cell [60] = test: Growth inhibitory concentration dissolved in DMSO against human Melanoma cell line at 10E-3 M concentration; assay type: functional

Cc1cn2c(/C=C3/C(=O)Nc4ccc(Cl)cc43)c(C)nc2s1
pGI50 (-log GI50, M) (CNS cell [1]): 6.13
LC50 (Breast carcinoma cell [2]): 4.02
LC50 (CNS cell [3]): 4.16
Activity (HT-29 [4]): 11.1%
GI50 (NSCLC [5]): 6.17
LC50 (Prostate cell [6]): 4.36
TGI (Breast carcinoma cell [7]): 4.85
GI50 (Renal cell [8]): 6.54
TGI (Melanoma cell [9]): 4.6
Activity (HT-29 [10]): 9.7%
Activity (HT-29 [11]): 72%
pGI50 (negative log of GI50 in M) (Ovarian carcinoma cell [12]): 5.91
Activity (HT-29 [13]): 86.2%
Activity (HT-29 [14]): 61.6%
LC50 [15]: 4.15
pGI50 (-log GI50, M) (Breast carcinoma cell [16]): 6.51
LC50 (Ovarian carcinoma cell [17]): 4.3
LC50 (NSCLC [18]): 4.16
pGI50 (negative log molar GI50) (Prostate cell [19]): 6.98
LC50 (Renal cell [20]): 4.06
TGI [21]: 4.81
TGI (Colon cell [22]): 5.06 and 5.08
LC50 (Colon cell [23]): 4.34
pGI50 (negative log of molar GI50) (Colon cell [24]): 6.72
TGI (NSCLC [25]): 4.65
GI50 [26]: -6.42
TGI (Prostate cell [27]): 5.62
TGI (Ovarian carcinoma cell [28]): 4.82
pGI50 (-log molar GI50) (Melanoma cell [29]): 6.21
LC50 (Melanoma cell [30]): 4.06

CC[C@]1(O)C[C@H]2CN(CCc3c([nH]c4ccccc34)[C@@](C(=O)OC)(c3cc4c(cc3OC)N(C=O)[C@H]3[C@@](O)(C(=O)OC)[C@H](OC(C)=O)[C@]5(CC)C=CCN6CC[C@]43[C@@H]65)C2)C1.O=S(=O)(O)O [VINCRISTINE SULFATE]
pGI50 (Leukemia cell [31]): 7
pTGI (Breast carcinoma cell [32]): 5.1
LC50 (Renal cell [33]): 3.6
pTGI (NSCLC [34]): 4.8
pGI50 (Prostate cell [35]): 6.9
pTGI (Melanoma cell [36]): 5.1
pGI50 (NSCLC [37]): 6.6
pGI50 (Breast carcinoma cell [38]): 6.5
LC50 [39]: 3.6
pGI50 (Ovarian carcinoma cell [40]): 6.5
pGI50 (CNS cell [41]): 6.9
LC50 (Ovarian carcinoma cell [42]): 3.5
pTGI (CNS cell [43]): 5.2
pGI50 [44]: 6.7
LC50 (NSCLC [45]): 3.6
pTGI (Ovarian carcinoma cell [46]): 4.7
LC50 (Melanoma cell [47]): 3.6
pGI50 (Colon cell [48]): 7
pTGI (Leukemia cell [49]): 4.8
LC50 (CNS cell [50]): 3.7
pGI50 (Renal cell [51]): 6.5
pTGI (Renal cell [52]): 4.7
LC50 (Colon cell [53]): 4.1
pTGI (Colon cell [54]): 5.4
pTGI [55]: 5
LC50 (Breast carcinoma cell [56]): 3.5
pTGI (Prostate cell [57]): 5.2
LC50 (Leukemia cell [58]): 3.2
LC50 (Prostate cell [59]): 3.5
pGI50 (Melanoma cell [60]): 6.8
